Test results: ChEMBL document CHEMBL6134927, “Novel Pyrido[3,4-d]pyrimidin-4-one and Pyrimido[5,4-d]pyrimidin-4-one Derivatives as TREM2 Agonists for Treating Parkinson's Disease” (ACS Med Chem Lett, 2025)

Target: T1, Triggering receptor expressed on myeloid cells 2 (Homo sapiens, UniProt Q9NZC2)
T1 sequence (Q9NZC2 whole entry): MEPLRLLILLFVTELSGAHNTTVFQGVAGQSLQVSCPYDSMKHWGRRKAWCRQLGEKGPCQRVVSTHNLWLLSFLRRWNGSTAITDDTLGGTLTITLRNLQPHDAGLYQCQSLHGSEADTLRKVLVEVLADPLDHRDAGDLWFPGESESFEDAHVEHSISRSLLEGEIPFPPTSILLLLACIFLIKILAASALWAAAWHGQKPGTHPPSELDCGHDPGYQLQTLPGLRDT
Experiment: Agonist activity at human TREM2 expressed in HEK cells co-expressing human DAP12 assessed as increase in Syk phosphorylation incubated for 30 mins by AlphaLISA assay
Format: cell-based

Structure (SMILES)	EC50
C[C@H]1CN(c2nc(-c3ccc(Cl)cc3F)c3nc(C(F)(F)F)n(C)c(=O)c3n2)C[C@@H](c2cnn(C3CC3)c2)O1	2 nM
Cc1cc([C@@H]2CN(c3cc4c(=O)n(C)c(C(F)F)nc4c(-c4ccc(Cl)cc4F)n3)CCO2)ccn1	3 nM
Cn1cc([C@H]2CN(c3nc(-c4ccc(Cl)cc4F)c4nc(C(F)F)n(C)c(=O)c4n3)CCO2)cn1	5 nM
Cc1cc([C@@H]2CN(c3nc(-c4ccc(Cl)cc4F)c4nc(C(F)F)n(C)c(=O)c4n3)CCO2)ccn1	1 nM

Further lines, results first:

EC50	Structure (SMILES)
4 nM	COc1cc([C@H]2CN(c3nc(-c4ccc(Cl)cc4F)c4nc(C(F)(F)F)n(C)c(=O)c4n3)CCO2)ccn1
2 nM	Cc1cc(C2CN(c3nc(-c4ccc(Cl)cc4F)c4nc(C(F)F)n(C)c(=O)c4n3)CCO2)ccn1 (stereo unspecified)
